Reference: patent US20230277583A1, “ENTERAL CARBON MONOXIDE FOR THE PREVENTION AND TREATMENT OF OCULAR DISEASES” (Augusta University Research Institute, Inc., priority 2022, published 2023)

Legend:
[1] = cited from earlier work
[2] = low dose CO reaching <20% COHb saturation; cited from earlier work
[3] = CO concentration achievable in aqueous composition at various temperature and pressure; format: physicochemical
Experimental: For example, CO can be dissolved in an aqueous liquid under higher than ambient pressure. The use of pressure to dissolve the CO increases the achievable concentration of CO in solution. […] For example, lowering of the temperature below 2° C. and increasing the pressure above 10 ATM can achieve an even greater concentration of CO dissolved in the aqueous solution. […] Although raising the pressure above 10 ATM might not be commercially practicable, it is technologically feasible at this time.
The method of making a CO-containing liquid composition relies on the use of greater than atmospheric pressure (i.e., “high” pressure) to increase the amount of CO dissolved in the liquid composition. In some embodiments, at least 1.1 atmospheres (ATM) of pressure is used in the process of introducing CO into the liquid composition. Preferably, where high pressure is used, at least 1.2 ATM is used. In certain exemplary embodiments, 2 ATM, 3 ATM, or 5 ATM is used during introduction of CO into the liquid composition. It is contemplated that pressures above 5 ATM are also suitable, such as 6 ATM, 7 ATM, 8 ATM, and 10 ATM or higher. In accordance with the discussion concerning ranges set forth above, all specific values, and all possible ranges, falling within the atmospheric conditions discussed herein are contemplated. Furthermore, variations in the source of CO, the equipment used to introduce the CO into the liquid composition, the pressure of the CO being used (i.e., volume supplied per unit time), and the atmospheric pressures used will affect the amount of time required to achieve a suitable concentration of CO in the composition.
The method of making a CO-containing liquid composition preferably includes subjecting the composition to a low temperature during the step of exposing the liquid to CO. […] A low temperature is typically a temperature at or below 4° C., preferably at or below 2° C., such as 1° C., 0° C., −1° C., −2° C., −3° C., −4° C., −5° C., −6° C., −10° C., −12° C., −14° C., −16° C., −18° C., −20° C., or below. In embodiments where the composition is exposed to a low temperature, it is preferred that the CO-containing liquid composition be sealed to preclude loss of dissolved CO over time. Accordingly, in embodiments, the method of making a CO-containing liquid composition includes dispensing the liquid composition into a sealable container and sealing the container after an appropriate amount of CO has been dissolved in the liquid composition. Dispensing of the liquid can be performed before, during, or after dissolving CO into the liquid composition. Typically, sealing will be performed under low temperature to minimize loss of dissolved CO during the process of sealing. As discussed above, any number of sealable containers and caps are known in the art of bottling and canning of liquids, and any of these can be used within the context of the present disclosure. For the sake of clarity, in embodiments where both high pressure and low temperature are used, it is preferred that sealing be performed under both high pressure and low temperature, although the same pressure and temperature used for dissolving CO into the liquid need not be used. Further, it is to be understood that, once the CO-containing liquid is sealed in a container under CO gas, it is not necessary to maintain the sealed container at high pressure and low temperature, as the sealed container will not allow dissolved CO to escape from solution.

In the case of [C-]#[O+] [CO, carbon monoxide], the “half-life of the alpha-phase of CO in the human bloodstream” value [1] is listed as 4 to 6 h, the safety and tolerability [2] is listed as “safe and tolerable” and the “CO Concentration Achievable in Aqueous Composition” value (shortened to “CO Concentration Achievable”) ([3]; 2° C., 1 ATM) is listed as 40 mg/L water. The “CO Concentration in Aqueous Solution” value ([3]; 2° C., 1 ATM) was 40 mg/L water, the “CO Concentration Achievable” value ([3]; 2° C., 2 ATM) was 80 mg/L water and the “CO Concentration in Aqueous Solution” value ([3]; 2° C., 2 ATM) was 80 mg/L water. The “CO Concentration Achievable” value ([3]; 2° C., 3 ATM) was 120 mg/L water, the “CO Concentration in Aqueous Solution” value ([3]; 2° C., 3 ATM) was 120 mg/L water and the “CO Concentration Achievable” value ([3]; 2° C., 5 ATM) was 200 mg/L water. For the same compound, the “CO Concentration in Aqueous Solution” value ([3]; 2° C., 5 ATM) was 200 mg/L water, the “CO Concentration Achievable” value ([3]; 2° C., 10 ATM) was 400 mg/L water and the “CO Concentration in Aqueous Solution” value ([3]; 2° C., 10 ATM) was 400 mg/L water. For the same compound, the “CO Concentration Achievable” value ([3]; 21° C., 1 ATM) was 25 mg/L water.
